The record followed here is patent EP1724268A1, “COMPOUND HAVING TGF-BETA INHIBITORY ACTIVITY AND PHARMACEUTICAL COMPOSITION CONTAINING SAME” (KIRIN BEER KABUSHIKI KAISHA, priority 2004, dated 2005).

In the assay the test system is TGFβ signal. The assay can be described thus: TGFβ signal inhibitory activity, (SBE)4-Luc reporter in A549 cells (Test Examples 1A and 1B). The class given is cell-based, human. The conditions noted are these: Homo sapiens. An outline of the steps:
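Compounds at 3 µM and 10 µM (some 1 µM) were added with 2 ng/ml TGFβ-1 to A549 cells stably expressing an SBE-driven luciferase, then cultured 4 hr. Chemiluminescent luciferase signal gave % inhibition versus TGFβ-alone and no-TGFβ controls.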

The mark [1] stands for this setting: A549, test compound 3 µM, TGFβ-1 2 ng/ml, 4 hr, Table 1A, read-out: TGFβ inhibition rate, %.
Where [2] appears, read: A549, test compound 10 µM, TGFβ-1 2 ng/ml, 4 hr, Table 1A, read-out: TGFβ inhibition rate, %.
The mark [3] stands for this setting: A549, 3 µM, compounds of Reference Examples (Test Example 1B), read-out: TGFβ inhibition rate, %.
The mark [4] stands for this setting: A549, 10 µM, compounds of Reference Examples (Test Example 1B), read-out: TGFβ inhibition rate, %.
[5] abbreviates: A549, test compound 3 µM, Reference Examples, Table 1B, read-out: TGFβ inhibition rate, %.
The mark [6] stands for this setting: A549, test compound 10 µM, Reference Examples, Table 1B, read-out: TGFβ inhibition rate, %.
The mark [7] stands for this setting: A549, read-out: TGFβ inhibition rate, %.

Where two headings read alike, the source gives them in different places.

As to `Cc1cc(Oc2ccnc3cc(-c4ccccc4N)ccc23)c(-c2ccccn2)nc1C` [Compound 108, 2-[4-(5,6-Dimethyl-[2,2']bipyridinyl-3-yloxy)-quinolin-7-yl]-phenylamine], the inhibition (commonly the relative decrease from the control value, in per cent) at 3 µM under setting [1] turned out to be 96%. Moreover, the inhibition at 10 µM under setting [2] was found to be 100%.
With `Cc1ccc(-c2ccc3nccc(Oc4cc(C)c(C)nc4-c4ccccn4)c3c2)s1` [Compound 165, 5,6-Dimethyl-3-[6-(5-methyl-thiophen-2-yl)-quinolin-4-yloxy]-[2,2']bipyridine], the inhibition at 3 µM under setting [1] stood at 90%. Moreover, under setting [2], the inhibition at 10 µM was 100%.
Take `COc1cc2c(Oc3cc4ccccc4nc3C)ccnc2cc1OCCCN1C(=O)c2ccccc2C1=O` [Compound r380]: under setting [3], the inhibition at 3 µM came to 50%. For the same molecule, under setting [4], the inhibition at 10 µM came to 89%.
In the same order, the values of `Cc1ccc(-c2nc(C)c(C)cc2Oc2ccnc3ccccc23)nc1` [Compound r431] are 97% and 99%.
The matching figures for `COc1cc2c(Oc3cc4ccccc4nc3C)ccnc2cc1OCC1CO1` (stereo not shown) [Compound r383, 6-Methoxy-4-(2-methyl-quinolin-3-yloxy)-7-oxilanyl methoxy-quinoline]: 97% and 100%.
`COc1cc2c(Oc3cc(C)c(C)nc3-c3nc(C)c(C)s3)ccnc2cc1OCCCO` [Compound r462]: the inhibition at 3 µM under setting [3] amounted to 99%.
Take `COc1cc2c(Oc3ccc(C)cc3C(=O)c3ccccc3)ccnc2cc1OCCCCN1CCN(C)CC1` [Compound r148]: the inhibition at 3 µM under setting [5] is 99%. The inhibition at 10 µM under setting [6] was determined as 100%.
Regarding `COc1cc2nccc(Oc3cc(C)c(C)nc3-c3ncccn3)c2cc1F` [Compound 158, 4-(5,6-Dimethyl-2-pyrimidin-2-yl-pyridin-3-yloxy)-6-fluoro-7-methoxy-quinoline], the inhibition at 3 µM under setting [1] amounted to 98%. Moreover, the inhibition at 10 µM under setting [2] stood at 100%.
For `COc1cc2nccc(Oc3ccc(C)nc3[N+](=O)[O-])c2cc1OC` [r210], the inhibition at 3 µM under setting [3] is 45%. Further, under setting [4], the inhibition at 10 µM stood at 80%.
As for `COc1cc2nccc(Oc3ccc(C)nc3-c3cccc(C)n3)c2cc1OC` [Compound r264], the inhibition at 3 µM under setting [3] came to 88%. Also, the inhibition at 10 µM under setting [4] was determined as 100%.
The matching figures for `COc1cc2c(Oc3cc(C)c(C)nc3-c3cccc(C)n3)ccnc2cc1OCC1CO1` (stereo not shown) [Compound r446]: 35% and 89%.
Turning to `COc1cc2nccc(Oc3ccc(C)nc3-c3nccs3)c2cc1OC` [r259], the inhibition at 1 µM (A549, 1 µM, compounds of Reference Examples (Test Example 1B), read-out: TGFβ inhibition rate, %) came out at 100%.
Regarding `COc1cc2nccc(Oc3cc(C)c(C(C)C)cc3C(C)=O)c2cc1OC` [r183], under setting [3], the inhibition at 3 µM is 82%. For the same molecule, the inhibition at 10 µM under setting [4] is 100%.
Consider `COc1cc2c(Oc3cc(C)c(C)nc3-c3ccccn3)ccnc2cc1OCC(CO)CO` [Compound r343], for which the inhibition at 3 µM under setting [3] came to 93%.
`COc1cc2nccc(Oc3cc(C(C)(C)C)c(OC)cc3C(C)=O)c2cc1OC` [Compound r185]: the inhibition at 3 µM under setting [3] stood at 11%. Further, the inhibition at 10 µM under setting [4] is 59%.
Take `Cc1cc(Oc2ccnc3ccc(-c4cccc(O)c4)cc23)c(-c2ccccn2)nc1C` [Compound 11, 3-[4-(5,6-Dimethyl-[2,2']bipyridin-3-yloxy)-quinolin-6-yl]-phenol]: the inhibition at 3 µM under setting [1] came to 100%. Also, the inhibition at 10 µM under setting [2] came out at 100%.
On to `COc1cc2c(Oc3cc4cccnc4nc3-c3ccccc3)ccnc2cc1F` [Compound 60, 3-(7-Fluoro-6-methoxy-quinolin-4-yloxy)-2-phenyl-[1,8]naphthyridine], for which the inhibition at 3 µM under setting [1] amounted to 76%. Moreover, the inhibition at 10 µM under setting [2] was 100%.
`COc1cc2nccc(Oc3cc4cccnc4nc3C)c2cc1F` [Compound 160, 3-(6-Fluoro-7-methoxy-quinolin-4-yloxy)-2-methyl-[1,8]naphthyridine]: the inhibition at 3 µM under setting [1] is 56%. Moreover, the inhibition at 10 µM under setting [2] was found to be 87%.
For the molecule `COc1cc2c(Oc3cc4cccnc4nc3C)ccnc2cc1OCCCO` [Compound r402], under setting [3], the inhibition at 3 µM was determined as 90%. Also, the inhibition at 10 µM under setting [4] was determined as 100%.
The matching figures for `COc1cc2nccc(Oc3cc4ccccc4nc3C)c2cc1OCCn1ccnc1` [Compound r416, 6-(2-Imidazol-1-yl-ethoxy)-7-methoxy-4-(2-methyl-quinolin-3-yloxy)-quinoline]: 92% and 100%.
Take `COc1cc2c(Oc3cc4ccccc4nc3C)ccnc2cc1OCCNC(=N)N` [Compound r356]: the inhibition at 3 µM under setting [3] was -2%. The inhibition at 10 µM under setting [4] was found to be 54%.
Take `Cc1cc(Oc2ccnc3ccc(OCCO)cc23)c(-c2ccccn2)nc1C` [Compound 142, 2-[4-(5,6-Dimethyl-[2,2']bipyridinyl-3-yloxy)-quinolin-6-yloxy]-ethanol]: the inhibition at 3 µM under setting [1] was determined as 98%. Further, under setting [2], the inhibition at 10 µM came to 100%.
In the same order, the values of `Cc1cc(Oc2ncnc3ccc(Br)cc23)c(-c2ccccn2)nc1C` [Compound 25, 6-Bromo-4-(5,6-dimethyl-[2,2']bipyridin-3-yloxy)-quinazoline] are 89% and 99%.
In the same order, the values of `Cc1cc(Oc2ccnc3ccccc23)c(-c2ncccn2)nc1C` [Compound 49, 4-(5,6-Dimethyl-2-pyrimidin-2-yl-pyridin-3-yloxy)-quinoline] are 97% and 100%.
With `COc1ccc(C(=O)c2ccc(C)cc2)c(Oc2ccnc3cc(OC)c(OC)cc23)c1` [Compound r65], the inhibition at 3 µM under setting [5] was 58%. Under setting [6], the inhibition at 10 µM is 100%.
In the case of `CCOc1cccc(-c2nc(C)ccc2Oc2ccnc3cc(OC)c(OC)cc23)c1` [Compound r239], the inhibition at 3 µM under setting [3] worked out at 83%. The inhibition at 10 µM under setting [4] was found to be 100%.
As to `COc1ccc2c(Oc3cc4cccnc4nc3-c3ccccc3)ccnc2c1` [Compound 56, 3-(7-Methoxy-quinolin-4-yloxy)-2-phenyl-[1,8]naphthyridine], the inhibition at 3 µM under setting [1] worked out at 99%. Moreover, the inhibition at 10 µM under setting [2] was determined as 100%.
As for `COc1cc2c(Oc3cc4ccccc4nc3C(C)=O)ccnc2cc1OCC1CO1` (stereo not shown) [Compound r394], the inhibition at 3 µM under setting [3] was determined as 83%. Further, under setting [4], the inhibition at 10 µM was found to be 100%.
For `COc1cc2c(Oc3cc(C)c(C)nc3-c3ccccn3)ccnc2cc1C` [Compound 119, 3-(6-Methoxy-7-methyl-quinolin-4-yloxy)-5,6-dimethyl-[2,2']bipyridine], under setting [1], the inhibition at 3 µM came out at 100%. The inhibition at 10 µM under setting [2] was 100%.
In the case of `COc1ccc(Oc2ccnc3cc(OC(=O)N4CCOCC4)c(OC)cc23)c(C(C)=O)c1` [Compound r118, 4-(2-Acetyl-4-methoxyphenoxy)-6-methoxy-7-quinolyl 4-morpholine carboxylate], the inhibition at 3 µM under setting [5] came out at 97%. Besides, the inhibition at 10 µM under setting [6] came out at 100%.
Take `c1ccc(-c2nc3ncccc3cc2Oc2ccnc3ccsc23)cc1` [Compound 71, 2-Phenyl-3-(thieno[3,2-b]pyridin-7-yloxy)-[1,8]naphthyridine]: under setting [1], the inhibition at 3 µM stood at 93%. Moreover, the inhibition at 10 µM under setting [2] came out at 100%.
On to `COc1cc2nccc(Oc3cc(C)c(C)nc3-c3nc(C)c(C)s3)c2cc1OC` [Compound r260, 4-[2-(4,5-Dimethylthiazol-2-yl)-5,6-dimethyl-pyridin-3-yloxy]-6,7-dimethoxy-quinoline], for which, under setting [3], the inhibition at 3 µM was determined as 96%. Moreover, the inhibition at 10 µM under setting [4] stood at 100%.
As to `COc1cc2c(Oc3cc(C)c(C)nc3-c3nc(C)c(C)s3)ccnc2cc1OCc1ccccc1` [Compound r454], under setting [3], the inhibition at 3 µM was 41%. The inhibition at 10 µM under setting [4] worked out at 75%.
In the case of `COc1cc2nccc(Oc3ccccc3C(=O)c3ccccc3)c2cc1OC` [Compound r63], under setting [7], the inhibition at 3 µM came to 57% and the inhibition at 10 µM was 91%.
As to `CCc1ccc(Oc2ccnc3cc(OC)c(OC)cc23)c(-c2ccccn2)n1` [Compound 37, 3-(6,7-Dimethoxy-quinolin-4-yloxy)-6-ethyl-[2,2']bipyridine], under “A549, test compound 1 µM, TGFβ-1 2 ng/ml, 4 hr, Table 1A, read-out: TGFβ inhibition rate, %”, the inhibition at 1 µM was determined as 98%. Besides, the inhibition at 3 µM under setting [1] is 100%.
In the case of `COc1cc2c(Oc3ccc(C)cc3C(=O)c3ccccc3)ccnc2cc1OCC1CO1` (stereo not shown) [Compound r151], under setting [5], the inhibition at 3 µM was found to be 95%. The inhibition at 10 µM under setting [6] amounted to 100%.
For `COc1cc2nccc(Oc3cc4cccnc4nc3-c3ccccc3)c2cc1C(=O)NCc1ccccc1` [Compound 65, 7-Methoxy-4-(2-phenyl-[1,8]naphthyridin-3-yloxy)-quinoline-6-carboxylate benzylamide], the inhibition at 3 µM under setting [1] was 97%. Under setting [2], the inhibition at 10 µM came out at 100%.
As for `COc1cc2nccc(Oc3ccc4oc(=O)cc(C)c4c3)c2cc1OC` [r306], the inhibition at 3 µM under setting [3] amounted to 20%. Further, under setting [4], the inhibition at 10 µM worked out at 53%.
Consider `COc1cc2nccc(Oc3cc(C)c(C)nc3-c3ccccn3)c2cc1OC(C)C` [Compound 120, 3-(6-Isopropoxy-7-methoxy-quinolin-4-yloxy)-5,6-dimethyl-[2,2']bipyridine], for which the inhibition at 3 µM under setting [1] came to 94%. For the same molecule, the inhibition at 10 µM under setting [2] worked out at 100%.
For `COc1cc2nccc(Oc3cc4ccccc4cc3C(=O)Oc3ccccc3)c2cc1OC` [Compound r102], under setting [5], the inhibition at 3 µM was found to be 33%. Besides, the inhibition at 10 µM under setting [6] came to 95%.
For `CCCc1ccc(Oc2ccnc3cc(OC)c(OC)cc23)c(C(C)=O)c1` [r173], the inhibition at 3 µM under setting [3] stood at 83%. The inhibition at 10 µM under setting [4] is 100%.
